Source: patent US11976083B2, “Inhibitors of peptidylarginine deiminases” (Gilead Sciences, Inc., priority 2020, dated 2024)

What follows are compounds tested against T1, human PAD4 (Homo sapiens, UniProt Q9UM07) (assay: In vitro PAD4 BAEE biochemical assay). Settings: BAEE substrate 3 mM, 5 nM PAD4, 2 mM calcium chloride; geometric mean of multiple experiments.
T1 construct: human PAD4 (NM_012387), A2-P663, was PCR amplified; His-SUMO (N, cleaved yes); made in house; host or cells: E. coli BL21(DE3)
T1 sequence (Q9UM07 2-663): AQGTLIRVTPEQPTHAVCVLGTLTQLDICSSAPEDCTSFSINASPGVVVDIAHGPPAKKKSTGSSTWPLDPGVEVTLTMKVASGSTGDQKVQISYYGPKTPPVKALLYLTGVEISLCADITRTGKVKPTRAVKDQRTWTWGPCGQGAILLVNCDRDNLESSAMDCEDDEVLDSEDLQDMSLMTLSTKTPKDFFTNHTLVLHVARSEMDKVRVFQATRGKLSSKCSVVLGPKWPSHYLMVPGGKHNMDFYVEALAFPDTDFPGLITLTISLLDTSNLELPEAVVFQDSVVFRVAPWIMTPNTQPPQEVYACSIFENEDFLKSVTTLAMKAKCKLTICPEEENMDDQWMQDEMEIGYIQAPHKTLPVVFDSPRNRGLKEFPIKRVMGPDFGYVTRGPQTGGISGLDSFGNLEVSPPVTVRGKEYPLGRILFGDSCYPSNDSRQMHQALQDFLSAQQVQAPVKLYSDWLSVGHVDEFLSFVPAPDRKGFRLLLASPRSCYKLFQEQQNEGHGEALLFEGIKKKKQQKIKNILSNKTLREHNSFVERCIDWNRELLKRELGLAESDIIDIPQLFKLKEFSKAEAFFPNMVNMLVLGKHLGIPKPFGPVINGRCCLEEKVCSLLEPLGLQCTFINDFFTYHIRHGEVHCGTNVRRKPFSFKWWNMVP
Procedure, shortened: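 Assay was run at 25 °C using 3 mM BAEE and 5 nM human PAD4 after a 30 min compound preincubation; ammonia produced over 2 h was quantified by OPA-derived fluorescence. Full inhibition was defined by 50 µM BB-Cl-Amidine, and IC50 came from variable-slope nonlinear regression.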

Row | SMILES | IC50 [nM]
1 | COc1cc(C(=O)N2CC[C@@H](C(F)(F)F)[C@@H](N)C2)cc2nc(-c3cc4ccc5nc4n3CCCCCCC(C)(C)C(=O)N[C@@H]5C)n(C)c12 [Example 192, (11~{R})-17-[5-[(3~{R},4~{R})-3-amino-4-(trifluoromethyl)piperidine-1-carbonyl]-7-methoxy-1-methyl-benzimidazol-2-yl]-8,8,11-trimethyl-1,10,19-triazatricyclo[10.5.2.0^{15,18}]nonadeca-12(19),13,15(18),16-tetraen-9-one] | 6690
2 | COc1cc(C(=O)N2C[C@H](N)C[C@@H](F)C2)cc2nc(-c3cc4ccc5nc4n3CCCCCCC(C)(C)C(=O)N[C@@H]5C)n(C)c12 [Example 193, (11~{R})-17-[5-[(3~{R},5~{R})-3-amino-5-fluoro-piperidine-1-carbonyl]-7-methoxy-1-methyl-benzimidazol-2-yl]-8,8,11-trimethyl-1,10,19-triazatricyclo[10.5.2.0^{15,18}]nonadeca-12(19),13,15(18),16-tetraen-9-one] | 66
3 | C[C@H]1NC(=O)C(C)(C)CCCCCCn2c(-c3nc4cc(C(=O)N5C[C@H](N)C[C@@H](F)C5)c(F)cc4n3C3CC3)cc3ccc1nc32 [Example 194, (11~{R})-17-[5-[(3~{R},5~{R})-3-amino-5-fluoro-piperidine-1-carbonyl]-1-cyclopropyl-6-fluoro-benzimidazol-2-yl]-8,8,11-trimethyl-1,10,19-triazatricyclo[10.5.2.0^{15,18}]nonadeca-12(19),13,15(18),16-tetraen-9-one] | 150
4 | COc1cc(C(=O)N2CC[C@@H](O)[C@@H](N)C2)cc2nc(-c3cc4ccc5nc4n3CCCCCCC(C)(C)C(=O)N[C@@H]5C)n(C)c12 [Example 195, (11~{R})-17-[5-[(3~{S},4~{R})-3-amino-4-hydroxy-piperidine-1-carbonyl]-7-methoxy-1-methyl-benzimidazol-2-yl]-8,8,11-trimethyl-1,10,19-triazatricyclo[10.5.2.0^{15,18}]nonadeca-12(19),13,15(18),16-tetraen-9-one] | 56
5 | COc1cc(C(=O)N2CC[C@@H](C)[C@@H](N)C2)cc2nc(-c3cc4ccc5nc4n3CCCCCCC(C)(C)C(=O)N[C@@H]5C)n(C)c12 [Example 196, (11~{R})-17-[5-[(3~{R},4~{R})-3-amino-4-methyl-piperidine-1-carbonyl]-7-methoxy-1-methyl-benzimidazol-2-yl]-8,8,11-trimethyl-1,10,19-triazatricyclo[10.5.2.0^{15,18}]nonadeca-12(19),13,15(18),16-tetraen-9-one] | 116
6 | COc1cc(C(=O)N[C@H]2CNC[C@@H]2F)cc2nc(-c3cc4ccc5nc4n3CCCCCCC(C)(C)C(=O)N[C@@H]5C)n(C)c12 [Example 197, ~{N}-[(3~{S},4~{S})-4-fluoropyrrolidin-3-yl]-7-methoxy-1-methyl-2-[(11~{R})-8,8,11-trimethyl-9-oxo-1,10,19-triazatricyclo[10.5.2.0^{15,18}]nonadeca-12(19),13,15(18),16-tetraen-17-yl]benzimidazole-5-carboxamide] | 6490
7 | COc1cc(C(=O)N[C@@H]2CNC[C@@H]2F)cc2nc(-c3cc4ccc5nc4n3CCCCCCC(C)(C)C(=O)N[C@@H]5C)n(C)c12 [Example 198, ~{N}-[(3~{R},4~{S})-4-fluoropyrrolidin-3-yl]-7-methoxy-1-methyl-2-[(11~{R})-8,8,11-trimethyl-9-oxo-1,10,19-triazatricyclo[10.5.2.0^{15,18}]nonadeca-12(19),13,15(18),16-tetraen-17-yl]benzimidazole-5-carboxamide] | 5960
8 | COc1cc(C(=O)N[C@H]2CNC[C@H]2F)cc2nc(-c3cc4ccc5nc4n3CCCCCCC(C)(C)C(=O)N[C@@H]5C)n(C)c12 [Example 199, ~{N}-[(3~{S),4~{R})-4-fluoropyrrolidin-3-yl]-7-methoxy-1-methyl-2-[(11~{R})-8,8,11-trimethyl-9-oxo-1,10,19-triazatricyclo[10.5.2.0^{15,18}]nonadeca-12(19),13,15(18),16-tetraen-17-yl]benzimidazole-5-carboxamide] | 18400
9 | COc1cc(C(=O)N[C@@H]2CNC[C@H]3C[C@H]32)cc2nc(-c3cc4ccc5nc4n3CCCCCCC(C)(C)C(=O)N[C@@H]5C)n(C)c12 [Example 201, ~{N}-[(1~{S),5~{S},6~{R})-3-azabicyclo[4.1.0]heptan-5-yl]-7-methoxy-1-methyl-2-[(11~{R})-8,8,11-trimethyl-9-oxo-1,10,19-triazatricyclo[10.5.2.0^{15,18}]nonadeca-12(19),13,15(18),16-tetraen-17-yl]benzimidazole-5-carboxamide] | 737
10 | COc1cc(C(=O)N[C@@H]2CNC[C@@H]3C[C@@H]32)cc2nc(-c3cc4ccc5nc4n3CCCCCCC(C)(C)C(=O)N[C@@H]5C)n(C)c12 [Example 202, ~{N}-[(1~{R},5~{S},6~{S})-3-azabicyclo[4.1.0]heptan-5-yl]-7-methoxy-1-methyl-2-[(11~{R})-8,8,11-trimethyl-9-oxo-1,10,19-triazatricyclo[10.5.2.0^{15,18}]nonadeca-12(19),13,15(18),16-tetraen-17-yl]benzimidazole-5-carboxamide] | 5130
11 | COc1cc(C(=O)N[C@H]2CNC[C@H]3C[C@H]32)cc2nc(-c3cc4ccc5nc4n3CCCCCCC(C)(C)C(=O)N[C@@H]5C)n(C)c12 [Example 203, ~{N}-[(1~{S},5~{R},6~{R})-3-azabicyclo[4.1.0]heptan-5-yl]-7-methoxy-1-methyl-2-[(11~{R})-8,8,11-trimethyl-9-oxo-1,10,19-triazatricyclo[10.5.2.0^{15,18}]nonadeca-12(19),13,15(18),16-tetraen-17-yl]benzimidazole-5-carboxamide] | 114
12 | COc1cc(C(=O)N2CC(N)CC(F)(F)C2)cc2nc(-c3cc4ccc5nc4n3CCCCCCC(C)(C)C(=O)N[C@@H]5C)n(C)c12 (stereo partly shown) [Example 204, (11~{R})-17-[5-(5-amino-3,3-difluoro-piperidine-1-carbonyl)-7-methoxy-1-methyl-benzimidazol-2-yl]-8,8,11-trimethyl-1,10,19-triazatricyclo[10.5.2.0^{15,18}]nonadeca-12(19),13,15(18),16-tetraen-9-one] | 3350
13 | COc1cc(C(=O)N2C[C@H]3C[C@H]3[C@@H](N)C2)cc2nc(-c3cc4ccc5nc4n3CCCCCCC(C)(C)C(=O)N[C@@H]5C)n(C)c12 [Example 206, (11~{R})-17-[5-[(1~{S},5~{R},6~{R})-5-amino-3-azabicyclo[4.1.0]heptane-3-carbonyl]-7-methoxy-1-methyl-benzimidazol-2-yl]-8,8,11-trimethyl-1,10,19-triazatricyclo[10.5.2.0^{15,18}]nonadeca-12(19),13,15(18),16-tetraen-9-one] | 850
14 | COc1cc(C(=O)N2[C@H]3CC[C@@H]2[C@H](N)[C@H](O)C3)cc2nc(-c3cc4ccc5nc4n3CCCCCCC3(CC3)C(=O)N[C@@H]5C)n(C)c12 [Example 207, (11~{R})-17-[5-[(1~{R},2~{S},3~{R},5~{S})-2-amino-3-hydroxy-8-azabicyclo[3.2.1]octane-8-carbonyl]-7-methoxy-1-methyl-benzimidazol-2-yl]-11-methyl-spiro[1,10,19-triazatricyclo[10.5.2.0^{15,18}]nonadeca-12(19),13,15(18),16-tetraene-8,1′-cyclopropane]-9-one] | 187
15 | COc1cc(C(=O)N2CC[C@H]3OCCN[C@H]3C2)cc2nc(-c3cc4ccc5cc4n3CCCCCCC3(CC3)C(=O)N[C@@H]5C)n(C)c12 [Example 208, (11~{R})-17-[5-[(4~{a}-{S},8~{a}~{R})-2,3,4,4~{a},5,7,8,8~{a}-octahydropyrido[4,3-b][1,4]oxazine-6-carbonyl]-7-methoxy-1-methyl-benzimidazol-2-yl]-11-methyl-spiro[1,10-diazatricyclo[10.5.2.0^{15,18}]nonadeca-12(19),13,15(18),16-tetraene-8,1′-cyclopropane]-9-one] | 136
16 | COc1cc(C(=O)N2[C@H]3CC[C@@H]2[C@H](N)C3)cc2nc(-c3cc4ccc5nc4n3CCCCN(C)C(=O)N[C@@H]5C)c(C)n12 [Example 209, (9˜{R})-15-[7-[(1˜{R},2˜{R},4˜{S})-2-amino-7-azabicyclo[2.2.1]heptane-7-carbonyl]-5-methoxy-3-methyl-imidazo[1,2-a]pyridin-2-yl]-6,9-dimethyl-1,6,8,17-tetrazatricyclo[8.5.2.0^{13,16}]heptadeca-10(17),11,13(16),14-tetraen-7-one] | 74
17 | COc1cc(C(=O)N2[C@H]3CC[C@@H]2[C@H](N)C3)cc2nc(-c3cc4ccc5nc4n3CCCCCN(C)C(=O)N[C@@H]5C)c(C)n12 [Example 210, (10~{R})-16-[7-[(1~{R},2~{R},4~{S})-2-amino-7-azabicyclo[2.2.1]heptane-7-carbonyl]-5-methoxy-3-methyl-imidazo[1,2-a]pyridin-2-yl]-7,10-dimethyl-1,7,9,18-tetrazatricyclo[9.5.2.0^{14,17}]octadeca-11(18),12,14(17),15-tetraen-8-one] | 39
18 | COc1cc(C(=O)N2[C@H]3CC[C@@H]2[C@H](N)C3)cc2nc(-c3cc4ccc5nc4n3CCCCCCCN(C)C(=O)N[C@@H]5C)c(C)n12 [Example 211, (12~{R})-18-[7-[(1~{R},2~{R},4~{S})-2-amino-7-azabicyclo[2.2.1]heptane-7-carbonyl]-5-methoxy-3-methyl-imidazo[1,2-a]pyridin-2-yl]-9,12-dimethyl-1,9,11,20-tetrazatricyclo[11.5.2.0^{16,19}]icosa-13(20),14,16(19),17-tetraen-10-one] | 34
19 | COc1cc(C(=O)N2[C@H]3CC[C@@H]2[C@H](N)C3)cc2nc(-c3cc4ccc5nc4n3CCCCCCN(C)C(=O)N[C@@H]5C)c(C)n12 [Example 212, (11~{R})-17-[7-[(1~{R},2~{R},4~{S})-2-amino-7-azabicyclo[2.2.1]heptane-7-carbonyl]-5-methoxy-3-methyl-imidazo[1,2-a]pyridin-2-yl]-8,11-dimethyl-1,8,10,19-tetrazatricyclo[10.5.2.0^{15,18}]nonadeca-12(19),13,15(18),16-tetraen-9-one] | 22
